The source of these data is PubChem BioAssay (NCI).

Molecules are shown by their SMILES.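 All cell lines were grown in 96-well plates and treated with compound for 48 hours. Here, GI50 denotes the concentration required for 50% inhibition of growth. TGI denotes the concentration required for complete inhibition of growth.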

Among the test systems are 786-0 renal; HOP-62 NSCLC; MDA-MB-231 breast; MDA-MB-435; MOLT-4 leukemia; NCI-H522 lung; OVCAR-3 ovarian; OVCAR-5 ovarian; PC-3 prostate; SK-MEL-28 melanoma.
What all share (assay): NCI tumour cell line growth inhibition, 48 h

With `CC1=C2[C@@H](CC1)[C@]1(C)O[C@@](C(C)C)(C[C@H]1OC(=O)CO)[C@H]2OC(=O)CCCc1ccccc1`, the GI50 was 13.1 µM in the experiment with 786-0 renal; 13.4 µM in the experiment on HOP-62 NSCLC; 12.9 µM with MDA-MB-231 breast; 13.1 µM in the experiment with MDA-MB-435; 3.66 µM with MOLT-4 leukemia; 7.51 µM with NCI-H522 lung. For the same compound, the GI50 with OVCAR-3 ovarian is 6.94 µM; with OVCAR-5 ovarian it was 15.7 µM; in the experiment with PC-3 prostate, 3.63 µM; with SK-MEL-28 melanoma, 13.9 µM. In addition, the TGI turned out to be 28.7 µM in the experiment on 786-0 renal; 26.8 µM in the experiment on HOP-62 NSCLC; 31.8 µM in the experiment on MDA-MB-231 breast; 26.2 µM in the experiment on MDA-MB-435; 15.2 µM with MOLT-4 leukemia; 24.6 µM with NCI-H522 lung. Further, the TGI in the experiment with OVCAR-3 ovarian was found to be 22.5 µM; in the experiment with OVCAR-5 ovarian, 30 µM; in the experiment on PC-3 prostate, 16.1 µM; with SK-MEL-28 melanoma it was 26.8 µM.

As for `CC(C)=Cc1cccc2[nH]c(O)c(N=Nc3ccc(S(N)(=O)=O)cc3)c12`, the GI50 in the experiment with 786-0 renal is 9.07 µM; in the experiment with HOP-62 NSCLC, over 14.3 µM; in the experiment on MDA-MB-231 breast, 7.17 µM; with MDA-MB-435 it was over 21.4 µM; in the experiment on MOLT-4 leukemia, 1.74 µM; in the experiment on NCI-H522 lung, over 25 µM. Further, the GI50 in the experiment on OVCAR-3 ovarian was 11.5 µM; in the experiment on OVCAR-5 ovarian, over 25 µM; in the experiment on PC-3 prostate, 6.2 µM; with SK-MEL-28 melanoma, over 25 µM. Also, the TGI in the experiment with 786-0 renal, in the experiment with HOP-62 NSCLC, in the experiment with MDA-MB-231 breast, with MDA-MB-435, with MOLT-4 leukemia and in the experiment with NCI-H522 lung was over 25 µM throughout. In addition, the TGI in the experiment on OVCAR-3 ovarian, with OVCAR-5 ovarian, with PC-3 prostate and with SK-MEL-28 melanoma was over 25 µM in each case.

Consider `Cc1cc(=O)oc2cc3oc(N(C)c4ccccc4)nc(=O)c3cc12`, for which the TGI with 786-0 renal, in the experiment with HOP-62 NSCLC, with MDA-MB-231 breast, in the experiment on MDA-MB-435, in the experiment on MOLT-4 leukemia and with NCI-H522 lung was over 100 µM in each case. The TGI in the experiment with OVCAR-3 ovarian, with OVCAR-5 ovarian, in the experiment on PC-3 prostate and in the experiment with SK-MEL-28 melanoma was over 100 µM throughout.

For the compound `Cc1ccc2[nH]c(C(=O)NN3C(=O)C(C)SC34CCC(C)CC4)c(-c3ccccc3)c2c1` (stereo not given), the GI50 in the experiment with 786-0 renal is 19 µM; in the experiment on HOP-62 NSCLC, 18.1 µM; in the experiment on MDA-MB-231 breast, 15.4 µM; in the experiment with MDA-MB-435, 16.5 µM; with MOLT-4 leukemia, 7.86 µM; in the experiment on NCI-H522 lung, 13 µM. Besides, the GI50 in the experiment with OVCAR-3 ovarian is 11.8 µM; in the experiment on OVCAR-5 ovarian it was 17 µM; with PC-3 prostate, 13.8 µM; in the experiment with SK-MEL-28 melanoma, 17.8 µM. In addition, the TGI in the experiment on 786-0 renal amounted to 52.6 µM; with HOP-62 NSCLC, 37.7 µM; with MDA-MB-231 breast, 31.6 µM; in the experiment with MDA-MB-435 it was 35.4 µM; in the experiment on MOLT-4 leukemia it was 32.2 µM; with NCI-H522 lung it was 31.1 µM. Besides, the TGI was 27.3 µM in the experiment with OVCAR-3 ovarian, 34.6 µM in the experiment on OVCAR-5 ovarian, 46 µM in the experiment on PC-3 prostate and 35.9 µM in the experiment with SK-MEL-28 melanoma.

As to `COc1cc2c(c(OC)c1OC)-c1c(c3ccc([N+](=O)[O-])cc3c(=O)n1CCCBr)C2=O`, the GI50 in the experiment on 786-0 renal is 35.1 µM; in the experiment on HOP-62 NSCLC, 15.8 µM; with MDA-MB-231 breast, 31.3 µM; in the experiment with MDA-MB-435 it was over 100 µM; with MOLT-4 leukemia, 15.2 µM; with NCI-H522 lung, 17 µM. Further, the GI50 in the experiment with OVCAR-3 ovarian was over 100 µM; in the experiment with OVCAR-5 ovarian, over 100 µM; in the experiment on PC-3 prostate, 26.3 µM; with SK-MEL-28 melanoma, over 100 µM. Moreover, the TGI was over 100 µM in the experiment on 786-0 renal; 54.3 µM in the experiment with HOP-62 NSCLC; over 100 µM in the experiment with MDA-MB-231 breast; over 100 µM with MDA-MB-435; over 100 µM with MOLT-4 leukemia; over 100 µM with NCI-H522 lung. For the same compound, the TGI in the experiment on OVCAR-3 ovarian, in the experiment with OVCAR-5 ovarian, in the experiment with PC-3 prostate and with SK-MEL-28 melanoma was over 100 µM in each case.

As for `CCCCc1n(Cc2ccc3ccccc3n2)cc[n+]1Cc1ccc2ccccc2n1`, the GI50 with 786-0 renal is 4.65 µM; with HOP-62 NSCLC, 2.72 µM; in the experiment with MDA-MB-231 breast, 1.77 µM; with MDA-MB-435 it was 0.71 µM; in the experiment with MOLT-4 leukemia, 1.81 µM; in the experiment on NCI-H522 lung it was 0.445 µM. The GI50 was 0.698 µM in the experiment on OVCAR-3 ovarian, 2.66 µM with OVCAR-5 ovarian, 1.51 µM with PC-3 prostate and 1.05 µM in the experiment with SK-MEL-28 melanoma. The TGI in the experiment with 786-0 renal was 17.3 µM; in the experiment on HOP-62 NSCLC, 11.1 µM; with MDA-MB-231 breast it was 9.35 µM; in the experiment with MDA-MB-435 it was 7.78 µM; in the experiment on MOLT-4 leukemia, 11 µM; with NCI-H522 lung, 4.99 µM. Moreover, the TGI in the experiment on OVCAR-3 ovarian was 10.7 µM; in the experiment with OVCAR-5 ovarian, 13.7 µM; in the experiment on PC-3 prostate it was 10.6 µM; with SK-MEL-28 melanoma, 12.2 µM.

As to `Fc1ccc(-c2ncn(CCCN3CCOCC3)c2-c2ccncc2)cc1`, the GI50 in the experiment on 786-0 renal, in the experiment on HOP-62 NSCLC, with MDA-MB-231 breast, in the experiment with MDA-MB-435, with MOLT-4 leukemia and in the experiment with NCI-H522 lung was over 25 µM each time. Also, the GI50 in the experiment on OVCAR-3 ovarian, in the experiment on OVCAR-5 ovarian, with PC-3 prostate and in the experiment on SK-MEL-28 melanoma was over 25 µM throughout. In addition, the TGI with 786-0 renal, in the experiment with HOP-62 NSCLC, in the experiment with MDA-MB-231 breast, with MDA-MB-435, in the experiment with MOLT-4 leukemia and with NCI-H522 lung was over 25 µM each time. The TGI in the experiment with OVCAR-3 ovarian, with OVCAR-5 ovarian, in the experiment with PC-3 prostate and with SK-MEL-28 melanoma was over 25 µM each time.

On to `CCCS(=O)(=O)Nc1cccc(Nc2ncnc3cc(NC(=O)CCl)ccc23)c1Cl`, for which the GI50 with 786-0 renal was 0.935 µM; in the experiment with HOP-62 NSCLC it was 2.36 µM; with MDA-MB-231 breast, 2.34 µM; in the experiment on MDA-MB-435, 1.47 µM; with MOLT-4 leukemia it was 1.04 µM; with NCI-H522 lung, 0.432 µM. Moreover, the GI50 was 2.98 µM in the experiment on OVCAR-3 ovarian, 2.01 µM in the experiment on OVCAR-5 ovarian, 3.44 µM in the experiment on PC-3 prostate and 2.45 µM in the experiment on SK-MEL-28 melanoma. The TGI in the experiment on 786-0 renal is 3.88 µM; in the experiment on HOP-62 NSCLC, 7.12 µM; with MDA-MB-231 breast it was 6.08 µM; with MDA-MB-435 it was 5.76 µM; in the experiment on MOLT-4 leukemia, 7.13 µM; in the experiment with NCI-H522 lung it was 0.913 µM. The TGI is 6.62 µM in the experiment on OVCAR-3 ovarian, 5.64 µM with OVCAR-5 ovarian, 8.44 µM in the experiment on PC-3 prostate and 9.67 µM in the experiment on SK-MEL-28 melanoma.
